Experimental data reported in patent US20110178023A1, “Use Of SCO-Spondin Peptides For Inhibiting Or Preventing Neuronal Apoptosis Mediated By Cell Death Receptor Ligands” (Institut National de la Sante et de la Recherche Medicale …, priority 2007, published 2011).

B1: TRAIL: TNF-related apoptosis inducing ligand, cell death receptor ligand used to induce apoptosis (protein, UniProt P50591 1-281, looked up)
Tumor necrosis factor ligand …: MAMMEVQGGPSLGQTCVLIVIFTVLLQSLCVAVTYVYFTNELKQMQDKYSKSGIACFLKEDDSYWDPNDEESMNSPCWQVKWQLRQLVRKMILRTSEETISTVQEKQQNISPLVRERGPQRVAAHITGTRGRSNTLSSPNSKNEKALGRKINSWESSRSGHSFLSNLHLRNGELVIHEKGFYYIYSQTYFRFQEEIKENTKNDKQMVQYIYKYTSYPDPILLMKSARNSCWSKDAEYGLYSIYQGGIFELKENDRIFVSVTNEHLIDMDHEASFFGAFLVG
B2: FasL: Fas ligand, cell death receptor ligand of the TNF superfamily used to induce apoptosis (protein, UniProt P48023 130-281, looked up)
Tumor necrosis factor ligand …: QIGHPSPPPEKKELRKVAHLTGKSNSRSMPLEWEDTYGIVLLSGVKYKKGGLVINETGLYFVYSKVYFRGQSCNNLPLSHKVYMRNSKYPQDLVMMEGKMMSYCTTGQMWARSSYLGAVFNLTSADHLYVNVSELSLVNFEESQTFFGLYKL

Test system: embryonic rat hippocampal cells
Experiment: Apoptosis detection (TUNEL, DAPI counter-staining) in treated hippocampal cell cultures
Format: cell-based
Details: for apoptosis induced by cell death receptor pathway (Fas, TRAIL-R) in hippocampal cells: TSR peptide added to culture medium, 7 days of treatment; for number of apoptotic cells with death receptor ligand alone: FasL 20 ng/mL or TRAIL 80 ng/mL alone
Method: FIG. 2: Histogramm representing the percentage of apoptotic cells outside the clusters compared with the total number of cells, data provided by only one experiment realized in triplicate. In each assay, apoptotic labelling with TUNEL method were counted on 4 photos aleatory on each slide, and having always at least 1 neurosphere. The cultures were treated (cases TSR, FasL, TSR+FasL, TRAIL, TSR+TRAIL, FasL+TRAIL and TSR+FasL+TRAIL) or not treated (control, c) during 7 days with a TSR peptide concentration of 375 μg/mL and/or 20 ng/mL of FasL and/or 80 ng/mL of TRAIL).
Cultures of hippocampal cells from foetal rats: Cells were obtained from E18 rat brains. Tissues were removed in dissection medium (Hank's Balanced Salt Solution, HBSS plus antibiotics). Composition of dissection medium HBSS plus antibiotics): • potassium chloride (KCl): 400 mg/L • potassium phosphate (KH2PO4): 60 mg/L • sodium bicarbonate (NaHCO3): 350 mg/L • sodium chloride (NaCl): 8000 mg/L • sodium phosphate (Na2HPO4): 48 mg/L • D-glucose: 1000 mg/L • penicillin-streptomycin: 100 units/mL
Meninges were removed from the embryos brains and hippocampus was dissected in a sterile petri dish in HBSS plus antibiotic medium. After centrifugation cells were ressuspended in culture medium MEM with Earl Salts supplemented with B27, EGF, FGF-2 and antibiotics. The composition of the culture medium was the following: • L-arginine hydrochloride: […] • L-cystine: 24 mg/L • L-glutamine: 292 mg/L • L-histidine-H2O Hydrochloride: 42 mg/L • L-isoleucine: 52 mg/L • L-leucine 52 mg/L • L-lysine Hydrochloride: 73 mg/l, • L-methionine: 15 mg/L • L-phenylalanine: 32 mg/L • L-threonine: 48 mg/L • L-tryptophane: 10 mg/L • L-tyrosine: 36 mg/L • L-valine: 46 mg/L • choline Chloride: 1 mg/L • D-calcium pantothenate: 1 mg/L • folic acid: 1 mg/L • I-inositol: 2 mg/L • Niacinamide: 1 mg/L • pyridoxal Hydrochloride: 1 mg/L • Riboflavine: 0.1 mg/L • thiamine Hydrochloride: 1 mg/L • calcium chloride (CaCl2-2H2O): 264 mg/L • magnesium sulfate (MgSO4-7H2O): 200 mg/L • potassium chloride (KCl): 400 mg/L • sodium bicarbonate (NaHCO3): 2200 mg/L • sodium chloride (NaCl): 6800 mg/L • sodium phosphate (NaH2PO4-2H2O): 158 mg/L • D-glucose: 4500 mg/L • phenol red: 10 mg/L • Sodium pyruvate: 110.04 mg/L • B27 medium (Invitrogen) 50×: 2% v/v • EGF: 20 μg/L • FGF-2: 20 μg/L • Penicillin-streptomycin: 100 units/mL
Hippocampus fragments were dissociated mechanically with 1 syringe 1 ml and 1 needle 25G and added with 1 mL of culture medium then centrifuged at 1200 rpm for 10 min. The supernatant is then removed and the cell pellet is resupended in 1 mL of culture medium. Other mechanic dissociation was performed with a seringe 1 mL and a needle 25G. Cell count was determined with Malassez hemocytometer and viability of cells was evaluated by counting the cells which have not absorbed the Trypan blue. Then cells are seeded in 48-well plates, at 40 000 cells by well in 500 μL of culture medium, on culture dishes precovered with collagen.
Preparation of precovered dishes with collagen: After an incubation of 10 min in absolute ethanol, the glass dishes were sterilized by heating 2H at 120° C. Sterilized glass dishes (10 mm diameter) was put on culture well and covered with a 0.1 mg/mL collagen calf skin solution. After 1 hr incubation at 37° C., the excess of solution is removed and the plate is maintained one night under hood of culture in order to let dry the plates. Before use, the wells were washed twice with 200 μL sterile distillated water.
Treatment of embryonic rat hippocampal cells: After 5 days of culture, cells were cultured in medium without growth factors (MEM with Earl salts, B27 and antibiotics) with different conditions of treatment combinating TSR peptide (WSGWSSCSRSCG—SEQ ID No 8) (375 μg/mL), FasL (20 ng/mL) and TRAIL (80 ng/mL). […]

Molecule	number of apoptotic cells, apoptosis induced by FasL (TSR peptide 375 μg/mL + FasL 20 ng/mL, 7 days, compared to FasL culture, FIG. 2)	number of apoptotic cells, apoptosis induced by TRAIL (TSR peptide 375 μg/mL + TRAIL 80 ng/mL, 7 days, compared to TRAIL culture, FIG. 2)	level of apoptosis (final statement, presumably FasL+TRAIL culture) (TSR peptide 375 μg/mL, 7 days, FIG. 2, inducer not given)	apoptosis induced by cell death receptor pathway (Fas, TRAIL-R) in hippocampal cells	apoptosis induced by cell death receptor pathway (Fas, TRAIL-R) in hippocampal cells (listed as peptide TSR)	effect on basal apoptosis (number of apoptotic cells) (TSR peptide alone 375 μg/mL, 7 days, compared to control cultures, FIG. 2)	number of apoptotic cells with death receptor ligand alone (7 days, FIG. 2)
WSGWSSCSRSCG [TSR peptide, peptide derived from the TSR (thrombospondin type 1 units) of SCO-spondin]	decreased	decreased in the presence of TSR peptide to a level comparable to control cells	restores the basal level of apoptosis	inhibits the apoptosis	decreased	no effect	–
B1	–	–	–	–	–	–	more important than in the presence of FasL
B2	–	–	–	–	–	–	increased
